Data as given in patent US20020002294A1, “Estrogenic compounds as antiangiogenic agents” (priority 1997, published 2002).

Assays:
[1] = system: tubulin; experiment: tubulin activities of 2-ME analogs (Table 3); assay type: biochemical
[2] = system: CNS cell lines; experiment: Human Tumor Cell Panel Assay in vitro, CNS panel; assay type: cell-based; set-up: key: Most sensitive cell panes are marked with ✓
Excerpt: (§1) The tubulin activities, breast cancer cell line activities, and the cell panels most sensitive to selected analogs are shown in Tables 3 and 4.

[3] = system: tubulin; experiment: inhibition of tubulin polymerization in vitro (turbidity at 350 nm); assay type: biochemical
Procedure: Anti-mitotic activity can be evaluated by testing the ability of an estradiol derivative to inhibit tubulin polymerization and microtubule assembly in vitro. Microtubule assembly is followed in a Gilford recording spectrophotometer (model 250 or 2400S) equipped with electronic temperature controllers. A reaction mixture (all concentrations refer to a final reaction volume of […]) contains 1.0 M monosodium glutamate (ph 6.6), 1. omg/ml (10 μM) tubulin, 1.0 mM MgCl2, 4% (v/v) dimethylsulfoxide and 20-75μM of a composition to be tested. The 0.24 ml reaction mixtures are incubated for 15 min. at 37° C. and then chilled on ice. After addition of 10p1 2.5mM GTP, the reaction mixture is transferred to a cuvette at 0° C., and a baseline established. At time zero, the temperature controller of the spectrophotometer is set at 37° C. Microtubule assembly is evaluated by increased turbity at 350 nm.
A. Each reaction mixture (all concentrations refer to the final reaction volume of 0.25 ml) contained 1.0 M monosodium glutamate (pH 6.6), 1.0 mg/ml (10 μM) tubulin, 1.0 mM MgCl2, 4% (v/v) dimethylsulfoxide, and either 0 (curve 1), 20μM (curve 2), 40 μM (curve 3), or 75 μM (curve 4) 2-methoxyestradiol. The 0.24 ml reaction mixtures were incubated for 15 min. at 37° C and chilled on ice. After addition of 10 μl of 2.5 mM GTP the reaction mixtures were transferred to cuvettes held at 0° C., and baselines were established. At time zero the temperature controller was set at 37° C. At the times indicated by the vertical dashed lines the temperature controller was set at the indicated temperatures.
B. Each reaction mixture contained 0.8 M monosodium glutamate (pH 6.6), 1.2 mg/ml (12 μM) tubulin, 4% (v/v) dimethylsulfoxide, and either 0 (curve 1), 1.0 FM (curve 2), 2.0 ,M (curve 3), 3.0 μM (curve 4), or 4.0 μM (curve 5) 2-methoxyestradiol. The 0.24 ml reaction mixtures were incubated for 15 min. at 26° C. and chilled on ice. After addition of 10μl of 10 mM GTP the reaction mixtures were transferred to cuvettes held at 0° C., and baselines were established. At time zero the temperature controller was set at 26° C. At the time indicated by vertical dashed line the temperature controller was set at 0° C.
The method is given in Example 1.
S.D., standard deviation.

[4] = target: T1, rat uterine cytosolic estrogen receptor (Rattus norvegicus, UniProt P06211); experiment: Relative Binding Affinity to estrogen receptor; details: at 0°; 3H-Estradiol=100
T1 construct: from tissue; host or cells: rat uterine cytosol (per the result head)
T1 sequence (P06211 1-600): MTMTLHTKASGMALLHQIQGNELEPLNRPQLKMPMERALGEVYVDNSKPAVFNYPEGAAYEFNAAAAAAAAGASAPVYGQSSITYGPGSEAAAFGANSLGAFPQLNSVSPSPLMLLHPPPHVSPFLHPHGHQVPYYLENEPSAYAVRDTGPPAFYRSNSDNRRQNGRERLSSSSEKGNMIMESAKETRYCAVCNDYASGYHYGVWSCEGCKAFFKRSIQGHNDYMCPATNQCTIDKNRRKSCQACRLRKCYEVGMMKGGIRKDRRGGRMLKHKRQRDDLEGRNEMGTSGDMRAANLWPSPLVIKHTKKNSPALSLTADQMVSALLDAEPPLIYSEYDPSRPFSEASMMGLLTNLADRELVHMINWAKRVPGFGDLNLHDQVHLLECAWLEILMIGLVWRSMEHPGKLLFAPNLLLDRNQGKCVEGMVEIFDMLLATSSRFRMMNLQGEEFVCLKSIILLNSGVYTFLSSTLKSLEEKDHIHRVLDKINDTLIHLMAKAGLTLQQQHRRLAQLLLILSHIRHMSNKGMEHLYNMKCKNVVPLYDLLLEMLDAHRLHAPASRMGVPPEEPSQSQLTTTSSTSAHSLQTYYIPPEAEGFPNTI
Excerpt: as §1

[5] = system: tubulin; experiment: inhibition of [3H]colchicine binding to tubulin; details: 1.0 μM tubulin, 10 min at 37° C.
Procedure: Incubation was for 10 min. at 37° C.
Incubation was for 10 mi. at 37° C. Average values obtained in three independent experiments are presented in the table, except for 2-methoxyestrone, which was only examined twice. S.D., standard deviation.

In the case of `COc1cc2c(cc1O)CCC1C2CCC2(C)C(O)CCC12` (stereo not shown) [NSC 659853, 2-Methoxyestradiol], the IC50 [1] is reported as 3.6 ± 0.4 µM, the “Most Sensitive Cell Lines in Human Tumor Cell Panel Assay: CNS” value [2] is reported as “✓” and the “inhibition of tubulin polymerization (FIG. 1), in words” value ([3]; 20-75 μM (A) or 1.0-4.0 μM (B) 2-methoxyestradiol) is reported as “inhibition of tubulin polymerization”. The IC50 ([3]; read-out: IC50 (concentration required to inhibit tubulin polymerization by 50%), mean ± S.D., method of Example 1) was 1.9 ± 0.2 µM, the “RBA, Relative Binding Affinity to rat uterine cytosolic estrogen receptor” value [4] was 0.245 and the “inhibition of colchicine binding to tubulin (FIG. 2), in words” value ([5]; 5 μM [3H]colchicine) was “inhibits colchicine binding to tubulin”. For the same molecule, the “Percentage Inhibition of colchicine binding to tubulin” value ([5]; 100 μM inhibitor, 2 μM [3H]colchicine, ± S.D.) was 82 ± 2%.
